What was measured:
Assay type in all cases: in vivo
Ctenocephalides felis = Ctenocephalides felis test (CTECFE); conditions: application rate 100 ppm in cattle blood, adult unfed fleas, 100% = all fleas killed
Experimental: Ctenocephalides felis—Test (CTECFE)
(§1) Solvent: Dimethyl Sulfoxide
To produce a suitable preparation of active compound, 10 mg of active compound are dissolved in 0.5 ml solvent, and the concentrate is diluted with cattle blood to the desired concentration.
Approximately 10 to 15 adult unfed (Ctenocepahlides felis) are placed in flea chambers. The blood chamber, sealed with parafilm on the bottom are filled with cattle blood supplied with compound solution and placed on top of the flea chamber, so that the fleas are able to suck the blood. The blood chamber is heated to 37° C. whereas the flea chamber is kept at room temperature.
After the specified period of time, mortality in % is determined. 100% means that all the fleas have been killed; 0% means that none of the fleas have been killed.

Lucilia cuprina larvae = assay: Lucillia cuprina test; conditions: application rate 100 ppm, larvae on minced horse meat, 100% = all larvae killed
Experimental: as §1
(§2) To produce a suitable preparation of active compound, 10 mg of active compound are dissolved in 0.5 ml solvent, and the concentrate is diluted with water to the desired concentration.
Approximately 20-30 (Lucilia cuprina larvae) are transferred into a test tube containing 1 cm^3 of minced horse meat and 0.5 ml aqueous dilution of test compound.
After the specified period of time, mortality in % is determined. 100% means that all the larvae have been killed; 0% means that none of the larvae have been killed.

Boophilus microplus = Boophilus microplus test (injection); conditions: Rhipicephalus microplus; application rate 20 μg/animal; injected into abdomen of adult engorged female ticks; 100% = all eggs infertile
Experimental: Boophilus microplus—Test (Injection)
as §1, §2
Five adult engorged female ticks (Boophilus microplus) are injected with compound solution into the abdomen. Ticks are transferred into replica plates and incubated in a climate chamber for a period of time. Egg deposition of fertile eggs is monitored.
After the specified period of time, mortality in % is determined. 100% means that all eggs are infertile; 0% means that all eggs are fertile.

Musca domestica = Musca domestica test; conditions: application rate 100 ppm, adults, sponge soaked with sugar and compound solution, 100% = all flies killed
Experimental: as §1, §2
Prior to the assay, a piece or kitchen sponge is soaked with a mixture of sugar and compound solution and placed into a container. 10 adults (Musca domestica) are placed into the container and closed with a perforated lid.
After the specified period of time, mortality in % is determined. 100% means that all the flies have been killed; 0% means that none of the flies have been killed.

Structure (SMILES)	mortality at 100 ppm (Ctenocephalides felis)	mortality at 100 ppm (Lucilia cuprina larvae)	mortality at 0.02 mg (Boophilus microplus)	mortality at 100 ppm (Musca domestica)
O=C(Nc1cccc(C(=O)Nc2c(I)cc(C(F)(F)F)cc2C(F)(F)F)c1)c1ccc(Cl)cc1 [Example I-1-206]	≥ 80%	≥ 80%		
O=C(Nc1cccc(C(=O)Nc2c(I)cc(C(F)(F)F)cc2C(F)(F)F)c1)c1ccccc1 [Example I-1-204]	≥ 80%	≥ 80%	80%	
O=C(Nc1c(I)cc(C(F)(F)F)cc1I)c1cccc(NC(=O)c2ccccc2F)c1 [Example I-1-207]	≥ 80%	≥ 80%	80%	
O=C(Nc1c(Br)cc(S(F)(F)(F)(F)F)cc1Br)c1cccc(NC(=O)c2ccccc2F)c1 [Example I-1-213]	≥ 80%	≥ 80%	80%	
O=C(Nc1cccc(C(=O)Nc2c(Br)cc(Br)cc2Br)c1)c1ccccc1 [Example I-1-205]			80%	
O=C(Nc1c(I)cc(C(F)(F)F)cc1C(F)(F)F)c1cccc(NC(=O)c2ccccc2F)c1 [Example I-1-203]	≥ 80%		80%	
CCc1cc(SC(F)(F)F)cc(C)c1NC(=O)c1cccc(NC(=O)c2ccccc2F)c1 [Example I-1-186]	≥ 80%	≥ 80%	80%	
O=C(Nc1cccc(C(=O)Nc2c(Br)cc(Br)cc2C(F)(F)F)c1)c1ccc(Cl)cc1 [Example I-1-212]	≥ 80%		80%	
CCc1cc(SC(F)(F)C(F)(F)F)cc(C)c1NC(=O)c1cccc(NC(=O)c2ccccc2F)c1 [Example I-1-187]	≥ 80%	≥ 80%	80%	
O=C(Nc1cccc(C(=O)Nc2c(I)cc(C(F)(F)F)cc2C(F)(F)F)c1)c1ccc(Cl)cc1 [Example I-1-211]			80%	
O=C(Nc1c(I)cc(C(F)(F)F)cc1I)c1cccc(NC(=O)c2cccnc2F)c1 [Example I-1-208]	≥ 80%	≥ 80%	80%	≥ 80%
